One test relates to CCRF-CEM. Description: Compound was tested for anti HIV-1 activity against CEM-SS/OC100 cell/virus strain. It is filed as functional, cell-based. Conditions: Homo sapiens.
For test [1], the species on record is Homo sapiens. In words: Compound was tested for anti HIV-1 activity against MT2/A17 cell/virus strain. The format is functional, organism-based.
In test [2] the test system is Human immunodeficiency virus 1. In words: Compound was tested for inhibition of cytopathic effects against human immunodeficiency virus type 1 (HIV-1). It is filed as functional, organism-based. Background: Protection from cytopathic effect is a common read-out in antiviral testing.
A further test has as its system Plasmodium falciparum. Description: In vitro antimalarial activity against Plasmodium falciparum. The format is functional, organism-based.
For test [3], the species on record is Homo sapiens. In words: Compound was tested for anti HIV-1 activity against MT2/G9106 cell/virus strain. It is filed as functional, organism-based.

For one compound, EC50 and IC50 results are on record in ChEMBL document CHEMBL1130871, “Korundamine A, a novel HIV-inhibitory and antimalarial "hybrid" naphthylisoquinoline alkaloid heterodimer from Ancistrocladus korupensis” (Bioorg Med Chem Lett, 1998).

In brackets after ≈: the same amount, converted by molar mass.

Usually EC50 stands for the concentration giving half of the maximal effect. A low value points to a more potent agent. Usually IC50 stands for the concentration at which inhibition is half-maximal. As to `COc1c2c(cc(O)c1-c1cc(-c3cc(-c4c(O)cc(O)c5c4C[C@@H](C)N[C@@H]5C)c4cc(C)cc(OC)c4c3O)c(O)c3c(OC)cc(C)cc13)C[C@@H](C)N=C2C`, the EC50 with CCRF-CEM was 8 µM; in the test listed under Homo sapiens [1], 10 µM; in test [2], 2 µM; in the test listed under Homo sapiens [3], 6 µM. Half-maximal inhibition in the test with Plasmodium falciparum (IC50) was put at 1.1 µg/mL (≈ 1.43 µM).
